Patent US5348962A, “Hydroxyquinolone derivatives compounds which have pharmaceutical utility” (Merck Sharpe & Dohme Ltd., priority 1990, dated 1994)

Tested on: AMPA receptor
Test: Cortical slice studies: responses to AMPA in rat cortical slice
Assay type: cell-based
Details: from righthand shift in AMPA concentration-response curves, read-out: apparent equilibrium constant (Kb) in response to AMPA
Protocol: The compounds useful in this invention potently and selectively block responses to NMDA and/or AMPA in a brain slice from rat cortex, and inhibit the binding of agonists and antagonists to the strychnine-insensitive site present on the NMDA receptor and/or AMPA binding to rat forebrain membranes.
The effects of compounds of the invention on responses to NMDA and AMPA were assessed using the rat cortical slice as described by Wong et al., Proc. Natl. Acad. Sci. USA, 1986, 83, 7104. The apparent equilibrium constant (Kb) was calculated from the righthand shift in the NMDA or AMPA concentration-response curves produced by the compound under test.

SMILES: O=c1[nH]c2cc([N+](=O)[O-])ccc2c(O)c1-c1ccccc1 [Example 12, 4-Hydroxy-7-nitro-3-phenyl-2(1H)-quinolone]
- Kb: < 150 µM
